# From patent publication US9067970B2, “Anticancer agents comprising peptides with cancer-specific toxicity” (Korea Advanced Institute of Science and Technology, priority 2010, dated 2015)
# Where no end group is shown, it is not given here.
# Columns and labels:
# human erythrocyte = assay: Disruption of human erythrocytes (absorbance); conditions: peptide 10-200 μg/ml, 30 min, FIG. 3
# Description: (§2) In order to test toxicity of the synthesized NKC and NRC peptides on normal cells, each of the cultured human embryo fibroblast (FSF), human keratinocyte (HaCat) and human erythrocyte was treated with the synthesized peptide, and the viability of each cell was analyzed.
# Meanwhile, PBS was added to erythrocytes obtained from the human blood, and diluted 1,000-fold. Each of the synthesized peptides, a known anticancer peptide, buforin IIb, and a known non-cytotoxic peptide, magainin 2 was added thereto at a concentration of 10, 25, 50, 100 or 200 μg/ml. After 30 min, disruption of erythrocytes was determined by the difference in absorbance using spectrometry (FIG. 3). In this connection, an experimental group treated with PBS only was used as a control group.
# [1] = test system: human keratinocyte (HaCat); assay: MTT viability of normal human keratinocyte (HaCat) cells; conditions: peptide 10-200 μg/ml, 4 days, FIG. 2
# Description: as §2
# (§3) In detail, each 1×10^4 of FSF and HaCat cells was aliquoted to a 96-well plate, and cultured for 24 hrs. Subsequently, each of the synthesized peptides, a known anticancer peptide, buforin IIb, and a known non-cytotoxic peptide, magainin 2 was added thereto at a concentration of 10, 25, 50, 100 or 200 μg/ml, and then the cells were cultured for 4 days. Thereafter, MTT (3-[4,5-dimethylthiazol-2-yl]-2,5-diphenyltetrazolium bromide) was added, and color development was detected using a spectrophotometer to count the number of surviving cells. On the basis of this, viability of each cell was calculated (FIGS. 1 and 1b). In this connection, an experimental group treated with PBS only was used as a control group.
# [2] = test system: human embryo fibroblast (FSF); assay: MTT viability of normal human embryo fibroblast (FSF) cells; conditions: peptide 10-200 μg/ml, 4 days, FIG. 1
# Description: as §2, §3
# normal FSF cells = assay: Fluorescence microscopy of FITC-labeled peptide, FSF cells; assay type: cell-based, human; conditions: 20 μg/ml, 1 hr, fluorescence microscope, FIG. 10
# Description: (§1) To reconfirm the cell selectivity of the peptides of the present invention, each 2×10^5 of normal FSF and HaCat cells, and SM-MEL-5 cell line, HeLa cell line and HCT-116 cell line as cancer cells were cultured at 37° C. overnight, and FITC (fluorescein isothiocyanate)-labeled peptides, buforin IIB and magainin 2 were added thereto at a concentration of 20 μg/ml, followed by incubation for 1 hr. Each cell or cell line was washed with PBS, and observed under a fluorescence microscope (FIG. 10).
# normal HaCat cells = assay: Fluorescence microscopy of FITC-labeled peptide, HaCat cells; assay type: cell-based, human; conditions: 20 μg/ml, 1 hr, fluorescence microscope, FIG. 10
# Description: as §1
# SM-MEL-5 cell line = assay: Fluorescence microscopy of FITC-labeled peptide, SM-MEL-5 cell line; assay type: cell-based, human; conditions: 20 μg/ml, 1 hr, fluorescence microscope, FIG. 10
# Description: as §1
# HeLa cell line = assay: Fluorescence microscopy of FITC-labeled peptide, HeLa cell line; assay type: cell-based, human; conditions: 20 μg/ml, 1 hr, fluorescence microscope, FIG. 10
# Description: as §1
# HCT-116 cell line = assay: Fluorescence microscopy of FITC-labeled peptide, HCT-116 cell line; assay type: cell-based, human; conditions: 20 μg/ml, 1 hr, fluorescence microscope, FIG. 10
# Description: as §1
# K-562 cancer cell line [3] = assay: Competitive binding assay with ganglioside, phosphatidylserine or heparin (MTT viability); assay type: cell-based, human; conditions: peptide 10 μg/ml, 48 hrs
# Excerpt: Accordingly, the present inventors assumed that external addition of ganglioside, phosphatidylserine, and heparin to the cancer cell culture media causes dispersion of the peptides of the present invention in the cancer cell surface and the negatively charged materials added to the culture media, whereby the anticancer activity is reduced by the addition of negatively charged materials in a concentration-dependent manner.
# In detail, the K-562 cancer cell line was aliquoted to each well of 96-well plate at a density of 1×10^4, and each well was treated with 1 to 100 μg/ml of heparin, phosphatidylserine or ganglioside, and 10 μg/ml of the peptides of the present invention, buforin IIb and magainin 2, followed by cultivation for 48 hrs. Cell viability was measured in the same manner as in Example 1 (MTT assay) (FIGS. 13 to 15).
# K-562 cancer cell line [4] = assay: Anticancer activity on cancer cells lacking ganglioside (PMPP, MTT viability); assay type: cell-based, human; conditions: peptide 10 μg/ml, PMPP 0, 2 and 4 μM, 48 hrs, FIG. 16
# Description: In detail, the K-562 cancer cell line was aliquoted to each well of 96-well plate at a density of 1×10^4, and each well was treated with an inhibitor of ganglioside biosynthesis, PMPP at the concentration of 0, 2 and 4 μM, and then treated with 10 μg/ml of the peptides of the present invention, buforin IIb and magainin 2, followed by cultivation for 48 hrs. Cell viability was measured in the same manner as in Example 1 (MTT assay) (FIG. 16).
Substance,viability of erythrocytes (toxicity on normal cells) (human erythrocyte),viability of HaCat cells (toxicity on normal cells) [1],viability of FSF cells (toxicity on normal cells) [2],detection of FITC-labeled peptide in normal FSF cells (normal FSF cells),detection of FITC-labeled peptide in normal HaCat cells (normal HaCat cells),detection of FITC-labeled peptide in SM-MEL-5 cell line (SM-MEL-5 cell line),detection of FITC-labeled peptide in HeLa cell line (HeLa cell line),detection of FITC-labeled peptide in HCT-116 cell line (HCT-116 cell line),"cell viability with external addition of ganglioside (K-562 cancer cell line [3]; ganglioside 1 to 100 μg/ml, FIG. 13)","cell viability with external addition of heparin (K-562 cancer cell line [3]; heparin 1 to 100 μg/ml, FIG. 15)","cell viability with external addition of phosphatidylserine (K-562 cancer cell line [3]; phosphatidylserine 1 to 100 μg/ml, FIG. 14)",viability of cancer cells with increasing concentration of inhibitor of ganglioside biosynthesis (K-562 cancer cell line [4])
"APKAMKLLKKLLKLQKKGI-NH2 [NKC, APKAMKLLKKLLKLQKKGI-amine]",little toxicity,little toxicity,little toxicity,–,–,–,–,–,–,–,–,–
"APKAMRLLRRLLRLQKKGI-NH2 [NRC, APKAMRLLRRLLRLQKKGI-amide]",little toxicity,little toxicity,little toxicity,–,–,–,–,–,–,–,–,–
buforin IIb,–,–,–,rarely detected,at a predetermined level,in a large quantity,in a large quantity,in a large quantity,high cell viability,high cell viability,high cell viability,increased
magainin 2,–,–,–,not detected,not detected,not detected,not detected,not detected,–,–,–,–
